Measurements as given in patent publication US11802120B2, “Fused cyclic urea derivatives as CRHR2 antagonist” (RaQualia Pharma Inc., priority 2018, dated 2023).

target: T1, human CRHR2-alpha (Homo sapiens, UniProt Q13324); assay: cAMP functional assay for human CRHR2 (LANCE Ultra cAMP, TR-FRET); assay type: cell-based; conditions: CHO-K1 cells expressing human CRHR2-alpha, agonist human urocortin2 at EC80, cAMP; read-out: IC50 against CRHR2
T1 sequence (Q13324 1-411): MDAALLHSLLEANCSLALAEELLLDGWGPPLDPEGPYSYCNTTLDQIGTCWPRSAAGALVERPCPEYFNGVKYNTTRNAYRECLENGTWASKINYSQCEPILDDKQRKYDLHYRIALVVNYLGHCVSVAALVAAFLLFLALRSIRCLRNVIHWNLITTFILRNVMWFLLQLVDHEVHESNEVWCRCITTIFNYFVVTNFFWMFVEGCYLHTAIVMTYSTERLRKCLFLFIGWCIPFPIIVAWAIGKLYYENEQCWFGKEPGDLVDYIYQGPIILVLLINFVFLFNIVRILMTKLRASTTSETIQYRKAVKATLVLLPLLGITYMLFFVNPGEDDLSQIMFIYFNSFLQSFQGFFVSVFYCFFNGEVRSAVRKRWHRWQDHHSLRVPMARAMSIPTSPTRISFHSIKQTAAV
How it was run: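 CHO-K1 stable lines; 4,000 cells/well; compound 30 min, 25° C; EC80 agonist (human urocortin2 → CRHR2, CRF → CRHR1) 30 min, 25° C; buffer HBSS/0.1% BSA/0.5 mM IBMX/5 mM Hepes pH 7.4; Eu-cAMP tracer + ULight antibody 60 min; TR-FRET read; IC50 from % inhibition curves.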

| SMILES | IC50 |
| --- | --- |
| Cc1ncc(Cl)cc1C(=O)N[C@H]1CC[C@H](Cn2c(=O)n(-c3ccc(-c4ccn(C)n4)cc3)c3ccccc32)CC1 [Example 447, 5-chloro-2-methyl-N-((1r,4r)-4-((3-(4-(1-methyl-1H-pyrazol-3-yl)phenyl)-2-oxo-2,3-dihydro-1H-benzo[d]imidazol-1-yl)methyl)cyclo-hexyl)nicotinamide] | < 300 nM |
| Cc1ncc(Cl)cc1C(=O)N[C@H]1CC[C@H](Cn2c(=O)n(Cc3ccccc3)c3ncccc32)CC1 [Example 448, N-((1r,4r)-4-((3-benzyl-2-oxo-2,3-dihydro-1H-imidazo [4,5-b]pyridin-1-yl)methyl)cyclohexyl)-5-chloro-2-methylnicotinamide] | < 300 nM |
| O=C(N[C@H]1CC[C@H](Cn2c(=O)n(-c3ccccc3F)c3ncccc32)CC1)c1cc(Cl)cnc1C(F)F [Example 449, 5-chloro-2-(difluoromethyl)-N-((1r,4r)-4-((3-(2-fluoro-phenyl)-2-oxo-2,3-dihydro-1H-imidazo[4,5-b]pyridin-1-yl)methyl)cyclohexyl) nicotinamide] | < 300 nM |
| Cc1ccc(-n2c(=O)n(C[C@H]3CC[C@H](NC(=O)c4cc(Cl)cnc4C(F)F)CC3)c3cccnc32)c(Cl)c1 [Example 452, 5-chloro-N-((1r,4r)-4-((3-(2-chloro-4-methylphenyl)-2-oxo-2,3-dihydro-1H-imidazo[4,5-b]pyridin-1-yl)methyl)cyclo-hexyl)-2-(difluoromethyl) nicotinamide] | < 300 nM |
| COc1ccc(Cl)c(-n2c(=O)n(C[C@H]3CC[C@H](NC(=O)c4cc(Cl)cnc4C(F)F)CC3)c3cccnc32)c1 [Example 453, 5-chloro-N-((1r,4r)-4-((3-(2-chloro-5-methoxyphenyl)-2-oxo-2,3-dihydro-1H-imidazo [4,5-b]pyridin-1-yl)methyl)cyclohexyl)-2-(difluoromethyl) nicotinamide] | < 300 nM |
| O=C(N[C@H]1CC[C@H](Cn2c(=O)n(-c3cc(F)ccc3Cl)c3ncccc32)CC1)c1cc(Cl)cnc1C(F)F [Example 454, 5-chloro-N-((1r,4r)-4-((3-(2-chloro-5-fluorophenyl)-2-oxo-2,3-dihydro-1H-imidazo[4,5-b]pyridin-1-yl)methyl)cyclo-hexyl)-2-(difluoromethyl) nicotinamide] | < 300 nM |
| O=C(N[C@H]1CC[C@H](Cn2c(=O)n(-c3cnc4[nH]ccc4c3)c3ccccc32)CC1)c1cc(Cl)cnc1C(F)F [Example 455, 5-chloro-2-(difluoromethyl)-N-((1r,4r)-4-((2-oxo-3-(1H-pyrrolo[2,3-b]pyridin-5-yl)-2,3-dihydro-1H-benzo[d]imidazol-1-yl)methyl)cyclo-hexyl)nicotinamide] | < 300 nM |
| Cc1c[nH]c2ncc(-n3c(=O)n(C[C@H]4CC[C@H](NC(=O)c5cc(Cl)cnc5C(F)F)CC4)c4ccccc43)cc12 [Example 456, 5-chloro-2-(difluoromethyl)-N-((1r,4r)-4-((3-(3-methyl-1H-pyrrolo[2,3-b]pyridin-5-yl)-2-oxo-2,3-dihydro-1H-benzo[d]imidazol-1-yl)methyl)cyclohexyl)nicotinamide] | < 300 nM |
| O=C(N[C@H]1CC[C@H](Cn2c(=O)n(CCOc3ccccc3)c3ncccc32)CC1)c1cc(Cl)cnc1C(F)F [Example 458, 5-chloro-2-(difluoromethyl)-N-((1r,4r)-4-((2-oxo-3-(2-phenoxyethyl)-2,3-dihydro-1H-imidazo[4,5-b]pyridin-1-yl)methyl)cyclohexyl) nicotinamide] | < 300 nM |
| O=C(N[C@H]1CC[C@H](Cn2c(=O)n(-c3ccc(Cl)cc3Cl)c3ncccc32)CC1)c1cc(Cl)cnc1C(F)F [Example 459, 5-chloro-N-((1r,4r)-4-((3-(2,4-dichlorophenyl)-2-oxo-2,3-dihydro-1H-imidazo[4,5-b]pyridin-1-yl)methyl)cyclo-hexyl)-2-(difluoromethyl) nicotinamide] | < 300 nM |
| O=C(N[C@H]1CC[C@H](Cn2c(=O)n(-c3ccc(N4CC[C@@H](O)C4)nc3)c3ccccc32)CC1)c1cc(Cl)cnc1C(F)F [Example 461, 5-chloro-2-(difluoromethyl)-N-((1R,4r)-4-((3-(6-((R)-3-hydroxypyrrolidin-1-yl)pyridin-3-yl)-2-oxo-2,3-dihydro-1H-benzo[d]imidazol-1-yl)methyl)cyclohexyl) nicotinamide] | < 300 nM |
| CNc1ncc(-n2c(=O)n(C[C@H]3CC[C@H](NC(=O)c4cc(Cl)cnc4C(F)F)CC3)c3ccccc32)cc1C [Example 462, 5-chloro-2-(difluoromethyl)-N-((1r,4r)-4-((3-(5-methyl-6-(methylamino)pyridin-3-yl)-2-oxo-2,3-dihydro-1H-benzo [d]imidazol-1-yl)methyl)cyclo-hexyl)nicotinamide] | < 300 nM |
| O=C(N[C@H]1CC[C@H](Cn2c(=O)n(-c3ccc(NCC(F)(F)F)nc3)c3ccccc32)CC1)c1cc(Cl)cnc1C(F)F [Example 463, 5-chloro-2-(difluoromethyl)-N-((1r,4r)-4-((2-oxo-3-(6-((2,2,2-trifluoroethyl)amino)pyridin-3-yl)-2,3-dihydro-1H-benzo[d]imidazol-1-yl)methyl)cyclohexyl)nicotinamide] | < 300 nM |

Continued, values first:

| IC50 | SMILES |
| --- | --- |
| < 300 nM | Cc1ncc(Cl)cc1C(=O)N[C@H]1CC[C@H](Cn2c(=O)n(-c3cccc(N4CCOCC4)c3)c3ccccc32)CC1 [Example 444, 5-chloro-2-methyl-N-((1r,4r)-4-((3-(3-morpholinophenyl)-2-oxo-2,3-dihydro-1H-benzo [d]imidazol-1-yl)methyl)cyclo-hexyl)nicotinamide] |
| < 300 nM | Cc1ncc(Cl)cc1C(=O)N[C@H]1CC[C@H](Cn2c(=O)n(-c3ccc(-c4ccon4)cc3)c3ccccc32)CC1 [Example 445, 5-chloro-N-((1r,4r)-4-((3-(4-(isoxazol-3-yl)phenyl)-2-oxo-2,3-dihydro-1H-benzo[d]imidazol-1-yl)methyl)cyclo-hexyl)-2-methylnicotinamide] |
| < 300 nM | Cc1ncc(Cl)cc1C(=O)N[C@H]1CC[C@H](Cn2c(=O)n(-c3ccc(-c4ccnn4C)cc3)c3ccccc32)CC1 [Example 446, 5-chloro-2-methyl-N-((1r,4r)-4-((3-(4-(1-methyl-1H-pyrazol-5-yl)phenyl)-2-oxo-2,3-dihydro-1H-benzo[d]imidazol-1-yl)methyl)cyclo-hexyl)nicotinamide] |
| < 300 nM | Cc1ncc(Cl)cc1C(=O)N[C@H]1CC[C@H](Cn2c(=O)n(-c3ccc(-c4cnco4)cc3)c3ccccc32)CC1 [Example 450, 5-chloro-2-methyl-N-((1r,4r)-4-((3-(4-(oxazol-5-yl)phenyl)-2-oxo-2,3-dihydro-1H-benzo [d]imidazol-1-yl)methyl)cyclo-hexyl)nicotinamide] |
| < 300 nM | Cc1ncc(Cl)cc1C(=O)N[C@H]1CC[C@H](Cn2c(=O)n(-c3ccc(-c4ncco4)cc3)c3ccccc32)CC1 [Example 451, 5-chloro-2-methyl-N-((1r,4r)-4-((3-(4-(oxazol-2-yl)phenyl)-2-oxo-2,3-dihydro-1H-benzo [d]imidazol-1-yl)methyl)cyclo-hexyl)nicotinamide] |
| < 300 nM | Cc1ncc(Cl)cc1C(=O)N[C@H]1CC[C@H](Cn2c(=O)n(-c3ccc(NC(C)C)nc3)c3ccccc32)CC1 [Example 460, 5-chloro-N-((1r,4r)-4-((3-(6-(isopropylamino)pyridin-3-yl)-2-oxo-2,3-dihydro-1H-benzo[d]imidazol-1-yl)methyl)cyclohexyl)-2-methylnicotinamide] |
